# Laboratory results taken from patent US10479795B2 (Incyte Corporation, priority 2016, dated 2019).
# Counter-ions that a name gives are not always drawn. Like-named read-outs stand apart in the source and are kept apart here.
# How the values were obtained:
# [1] = system: Phosphorylated Ribosomal Protein S6 (RPS6); assay: THP-1 RPS6 ELISA Assay; type: cell-based, Human; conditions: THP-1 cells, read-out: PI3Kγ_THP1_RPS6_ELISA IC50
# Summary of the method: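 Serum-starved THP-1 cells were preincubated with a concentration range of compound for 2 h at 37 °C, then stimulated with 10 nM MCP-1 for 15 min. Phospho-RPS6 in lysates was quantified by ELISA at 450 nm. IC50 came from percent inhibition versus log inhibitor concentration.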
# [2] = target: PI3Kγ (p110γ) Recombinant Human Protein (Homo sapiens (Human), UniProt P48736); assay: PI3K-γ Scintillation Proximity Assay; type: biochemical; conditions: read-out: PI3Kγ IC50
# Chain of PI3Kγ (p110γ) Recombinant Human Protein (P48736 whole entry): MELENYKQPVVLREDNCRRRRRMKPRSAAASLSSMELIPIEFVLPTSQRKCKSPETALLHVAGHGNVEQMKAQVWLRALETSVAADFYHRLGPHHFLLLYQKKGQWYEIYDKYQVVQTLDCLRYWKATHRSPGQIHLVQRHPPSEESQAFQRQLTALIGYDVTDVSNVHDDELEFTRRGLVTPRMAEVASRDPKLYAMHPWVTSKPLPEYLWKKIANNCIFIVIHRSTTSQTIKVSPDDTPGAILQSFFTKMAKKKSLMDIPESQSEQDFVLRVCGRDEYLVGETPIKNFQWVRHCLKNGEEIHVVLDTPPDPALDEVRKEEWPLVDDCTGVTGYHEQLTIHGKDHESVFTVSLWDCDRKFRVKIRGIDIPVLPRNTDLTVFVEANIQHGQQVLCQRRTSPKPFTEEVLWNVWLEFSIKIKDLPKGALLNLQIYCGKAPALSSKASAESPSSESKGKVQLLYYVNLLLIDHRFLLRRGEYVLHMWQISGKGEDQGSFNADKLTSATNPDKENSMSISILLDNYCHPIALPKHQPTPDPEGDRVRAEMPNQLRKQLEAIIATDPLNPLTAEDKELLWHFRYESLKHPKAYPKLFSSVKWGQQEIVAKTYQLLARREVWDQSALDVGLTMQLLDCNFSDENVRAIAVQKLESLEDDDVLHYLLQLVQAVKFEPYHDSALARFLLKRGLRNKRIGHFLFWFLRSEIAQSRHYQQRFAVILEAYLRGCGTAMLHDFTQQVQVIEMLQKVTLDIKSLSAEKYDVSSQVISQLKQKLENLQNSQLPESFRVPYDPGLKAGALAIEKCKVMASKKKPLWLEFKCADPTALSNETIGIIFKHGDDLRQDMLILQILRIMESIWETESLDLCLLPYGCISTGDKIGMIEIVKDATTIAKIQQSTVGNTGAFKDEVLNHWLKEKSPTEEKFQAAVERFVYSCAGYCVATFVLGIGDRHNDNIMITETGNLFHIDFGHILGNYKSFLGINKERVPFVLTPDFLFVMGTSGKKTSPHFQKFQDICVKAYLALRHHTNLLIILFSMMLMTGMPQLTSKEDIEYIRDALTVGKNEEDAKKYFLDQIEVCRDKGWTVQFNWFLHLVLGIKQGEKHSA
# Summary of the method: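 Recombinant human p110γ assayed at room temperature in 20 mM MOPS pH 6.7, 10 mM MgCl2, 5 mM DTT, 0.03% CHAPS, 2% DMSO, with 20 μM PIP2 and 2 μM ATP plus [γ-33P]ATP. Product captured on WGA SPA beads overnight and counted; IC50 fitted from % of solvent-control activity versus log inhibitor concentration.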
# [3] = target: PI3Kδ (p110δ/p85α) Recombinant Human Protein (Homo sapiens (Human), UniProt O00329); assay: PI3Kδ Scintillation Proximity Assay; type: biochemical
# Chain of PI3Kδ (p110δ/p85α) Recombinant Human Protein (O00329 whole entry): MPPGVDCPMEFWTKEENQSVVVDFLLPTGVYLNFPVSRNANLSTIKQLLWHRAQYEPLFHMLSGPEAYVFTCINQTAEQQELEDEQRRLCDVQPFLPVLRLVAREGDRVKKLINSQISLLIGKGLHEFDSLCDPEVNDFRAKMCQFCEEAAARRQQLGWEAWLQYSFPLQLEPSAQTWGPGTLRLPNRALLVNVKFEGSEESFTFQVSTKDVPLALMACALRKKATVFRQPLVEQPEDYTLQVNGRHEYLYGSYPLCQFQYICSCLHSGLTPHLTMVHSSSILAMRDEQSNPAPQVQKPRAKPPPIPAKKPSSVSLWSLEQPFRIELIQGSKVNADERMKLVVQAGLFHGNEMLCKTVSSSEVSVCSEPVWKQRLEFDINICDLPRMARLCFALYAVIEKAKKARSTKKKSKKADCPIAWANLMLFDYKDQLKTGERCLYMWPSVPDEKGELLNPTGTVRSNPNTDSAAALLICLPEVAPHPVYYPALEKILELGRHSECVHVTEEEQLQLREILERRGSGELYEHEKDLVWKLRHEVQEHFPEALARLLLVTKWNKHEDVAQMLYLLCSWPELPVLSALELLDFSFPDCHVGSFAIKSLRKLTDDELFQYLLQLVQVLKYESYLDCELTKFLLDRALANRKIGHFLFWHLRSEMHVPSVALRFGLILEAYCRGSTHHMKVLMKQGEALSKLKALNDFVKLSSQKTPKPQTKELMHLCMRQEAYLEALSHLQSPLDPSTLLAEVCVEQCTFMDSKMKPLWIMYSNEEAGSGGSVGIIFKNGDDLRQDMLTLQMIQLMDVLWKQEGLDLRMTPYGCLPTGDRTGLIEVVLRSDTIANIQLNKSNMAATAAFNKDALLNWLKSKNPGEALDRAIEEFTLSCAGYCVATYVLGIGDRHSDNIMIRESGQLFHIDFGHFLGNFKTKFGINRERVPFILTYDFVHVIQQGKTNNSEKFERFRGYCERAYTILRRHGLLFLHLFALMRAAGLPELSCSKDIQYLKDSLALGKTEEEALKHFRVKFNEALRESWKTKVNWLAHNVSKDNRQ
# Chain of PI3Kδ (p110δ/p85α) Recombinant Human Protein (P27986 whole entry partner): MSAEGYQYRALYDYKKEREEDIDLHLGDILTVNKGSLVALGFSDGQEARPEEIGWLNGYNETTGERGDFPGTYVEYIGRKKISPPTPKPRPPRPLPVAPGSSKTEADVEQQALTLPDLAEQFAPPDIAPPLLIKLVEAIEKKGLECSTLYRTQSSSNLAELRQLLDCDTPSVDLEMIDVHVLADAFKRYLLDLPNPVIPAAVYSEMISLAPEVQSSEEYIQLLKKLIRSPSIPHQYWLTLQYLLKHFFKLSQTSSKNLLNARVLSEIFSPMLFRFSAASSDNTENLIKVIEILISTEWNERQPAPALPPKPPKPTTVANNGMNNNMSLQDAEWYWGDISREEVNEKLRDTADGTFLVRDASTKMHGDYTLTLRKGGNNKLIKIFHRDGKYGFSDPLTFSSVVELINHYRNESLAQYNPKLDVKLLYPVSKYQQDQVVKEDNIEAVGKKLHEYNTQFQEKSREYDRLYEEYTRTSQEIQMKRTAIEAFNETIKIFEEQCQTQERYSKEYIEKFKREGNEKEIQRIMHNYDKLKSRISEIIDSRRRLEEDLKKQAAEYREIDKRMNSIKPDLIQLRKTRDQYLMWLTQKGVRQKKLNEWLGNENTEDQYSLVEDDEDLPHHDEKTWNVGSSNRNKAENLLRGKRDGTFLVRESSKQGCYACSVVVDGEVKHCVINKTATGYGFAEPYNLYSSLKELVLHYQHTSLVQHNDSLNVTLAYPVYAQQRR
# Summary of the method: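 Recombinant human p110δ/p85α (3.4 nM) with 20 μM PIP2 and 2 μM ATP plus [γ-33P]ATP, in 20 mM MOPS pH 6.7, 10 mM MgCl2, 5 mM DTT, 0.03% CHAPS, 2% DMSO; 120 min at room temperature. Product captured on WGA SPA beads, scintillation counted; IC50 from percent-of-control curves.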
Structure (SMILES),IC50 ([1]; Homo sapiens),IC50 [2],IC50 [3],IC50 [1]
"Cc1cc(F)c(S(=O)(=O)N2CCCC(CO)C2)cc1-c1cnc2c(N)nc(C(F)(F)F)cn12 (stereo not drawn) [Example 408, (1-((5-(8-Amino-6-(trifluoromethyl)imidazo[1,2-a]pyrazin-3-yl)-2-fluoro-4-methylphenyl)sulfonyl)piperidin-3-yl)methanol]",> 1000 nM,< 100 nM,100 to 500 nM,
"[2H]C([2H])([2H])c1ccc(S(=O)(=O)N2CCCC(CO)C2)cc1-c1cnc2c(N)nc(C(F)(F)F)cn12 (stereo not drawn) [Example 409, (1-((3-(8-Amino-6-(trifluoromethyl)imidazo[1,2-a]pyrazin-3-yl)-4-(methyl-d3)phenyl)sulfonyl)piperidin-3-yl)methanol]",100 to 500 nM,< 100 nM,100 to 500 nM,
"Cc1cc(Cl)c(S(=O)(=O)N[C@H]2CC[C@](C)(O)CC2)cc1-c1cnc2c(N)nc(C(F)(F)F)nn12 [Example 410, 5-(4-Amino-2-(trifluoromethyl)imidazo[1,2-f][1,2,4]triazin-7-yl)-2-chloro-N-((1r,4r)-4-hydroxy-4-methylcyclohexyl)-4-methylbenzenesulfonamide trifluoroacetate salt]",,< 100 nM,< 100 nM,< 100 nM
"Nc1nc(C(F)(F)F)nn2c(-c3cccc(S(=O)(=O)NC45CCC(CO)(C4)C5)c3)cnc12 [Example 411, 3-(4-Amino-2-(trifluoromethyl)imidazo[1,2-f][1,2,4]triazin-7-yl)-N-(4-(hydroxymethyl)bicyclo[2.1.1]hexan-1-yl)benzenesulfonamide trifluoroacetate salt]",,< 100 nM,100 to 500 nM,100 to 500 nM
"Cc1cc(F)c(S(=O)(=O)N[C@H]2CC[C@](C)(O)CC2)cc1-c1cnc2c(N)nc(C(F)(F)F)nn12 [Example 412, 5-(4-Amino-2-(trifluoromethyl)imidazo[1,2-f][1,2,4]triazin-7-yl)-2-fluoro-N-((1r,4r)-4-hydroxy-4-methylcyclohexyl)-4-methylbenzenesulfonamide trifluoroacetate salt]",,< 100 nM,100 to 500 nM,< 100 nM
"Cc1cc(C)c(S(=O)(=O)N[C@H]2CC[C@](C)(O)CC2)cc1-c1cnc2c(N)nc(C(F)(F)F)nn12 [Example 413, 5-(4-Amino-2-(trifluoromethyl)imidazo[1,2-f][1,2,4]triazin-7-yl)-N-((1r,4r)-4-hydroxy-4-methylcyclohexyl)-2,4-dimethylbenzenesulfonamide trifluoroacetate salt]",,< 100 nM,100 to 500 nM,< 100 nM
"N#CC12CCC(NS(=O)(=O)c3cc(-c4cnc5c(N)nc(C(F)(F)F)nn45)ccc3Cl)(C1)C2 [Example 414, 5-(4-Amino-2-(trifluoromethyl)imidazo[1,2-f][1,2,4]triazin-7-yl)-2-chloro-N-(4-cyanobicyclo[2.1.1]hexan-1-yl)benzenesulfonamide]",,< 100 nM,< 100 nM,100 to 500 nM
"N#CC12CCC(NS(=O)(=O)c3cccc(-c4cnc5c(N)nc(C(F)(F)F)nn45)c3)(C1)C2 [Example 415, 3-(4-Amino-2-(trifluoromethyl)imidazo[1,2-f][1,2,4]triazin-7-yl)-N-(4-cyanobicyclo[2.1.1]hexan-1-yl)benzenesulfonamide trifluoroacetate salt]",,< 100 nM,100 to 500 nM,< 100 nM
"Cc1c(F)cc(S(=O)(=O)NC23CCC(C#N)(C2)C3)cc1-c1cnc2c(N)nc(C(F)(F)F)nn12 [Example 416, 3-(4-Amino-2-(trifluoromethyl)imidazo[1,2-f][1,2,4]triazin-7-yl)-N-(4-cyanobicyclo[2.1.1]hexan-1-yl)-5-fluoro-4-methylbenzenesulfonamide trifluoroacetate salt]",,< 100 nM,100 to 500 nM,< 100 nM
"N#CC12CCC(NS(=O)(=O)c3cc(-c4cnc5c(N)nc(C(F)(F)F)nn45)ccc3F)(C1)C2 [Example 417, 5-(4-Amino-2-(trifluoromethyl)imidazo[1,2-f][1,2,4]triazin-7-yl)-N-(4-cyanobicyclo[2.1.1]hexan-1-yl)-2-fluorobenzenesulfonamide trifluoroacetate salt]",,< 100 nM,100 to 500 nM,500 to 1000 nM
"Nc1nc(C(F)(F)F)nn2c(-c3ccc(F)c(S(=O)(=O)NC45CCC(CO)(C4)C5)c3)cnc12 [Example 418, 5-(4-Amino-2-(trifluoromethyl)imidazo[1,2-f][1,2,4]triazin-7-yl)-2-fluoro-N-(4-(hydroxymethyl)bicyclo[2.1.1]hexan-1-yl)benzenesulfonamide]",,< 100 nM,100 to 500 nM,> 1000 nM
"C[C@]1(O)CC[C@H](NS(=O)(=O)c2cc(-c3cnc4c(N)nc(-c5ccccc5F)cn34)ccc2F)CC1 [Example 421, 5-(8-amino-6-(2-fluorophenyl)imidazo[1,2-a]pyrazin-3-yl)-2-fluoro-N-((1r,4r)-4-hydroxy-4-methylcyclohexyl)benzenesulfonamide]",,< 100 nM,< 100 nM,< 100 nM
"C[C@]1(O)CC[C@H](NS(=O)(=O)c2cc(-c3cnc4c(N)nc(-c5ccncc5F)cn34)ccc2F)CC1 [Example 422, 5-(8-amino-6-(3-fluoropyridin-4-yl)imidazo[1,2-a]pyrazin-3-yl)-2-fluoro-N-((1r,4r)-4-hydroxy-4-methylcyclohexyl)benzenesulfonamide]",,< 100 nM,< 100 nM,< 100 nM
"C[C@]1(O)CC[C@H](NS(=O)(=O)c2cc(-c3cnc4c(N)nc(-c5ccc(CO)cc5F)cn34)ccc2F)CC1 [Example 423, 5-(8-amino-6-(2-fluoro-4-(hydroxymethyl)phenyl)imidazo[1,2-a]pyrazin-3-yl)-2-fluoro-N-((1r,4r)-4-hydroxy-4-methylcyclohexyl)benzenesulfonamide]",,< 100 nM,< 100 nM,< 100 nM
"Cc1ccc(S(=O)(=O)NC23COC(C)(C2)C3)cc1-c1cnc2c(N)ncnn12 [Example 424, 3-(4-Aminoimidazo[1,2-f][1,2,4]triazin-7-yl)-4-methyl-N-(1-methyl-2-oxabicyclo[2.1.1]hexan-4-yl)benzenesulfonamide trifluoroacetate salt]",100 to 500 nM,< 100 nM,100 to 500 nM,
"Cc1ccc(S(=O)(=O)NC23COC(C)(C2)C3)cc1-c1cnc2c(N)nc(C(F)(F)F)cn12 [Example 425, 3-(8-Amino-6-(trifluoromethyl)imidazo[1,2-a]pyrazin-3-yl)-4-methyl-N-(1-methyl-2-oxabicyclo[2.1.1]hexan-4-yl)benzenesulfonamide trifluoroacetate salt]",< 100 nM,< 100 nM,100 to 500 nM,
"[2H]C([2H])([2H])c1ccc(S(=O)(=O)NC23COC(C)(C2)C3)cc1-c1cnc2c(N)nc(C)nn12 [Example 426, 3-(4-Amino-2-methylimidazo[1,2-f][1,2,4]triazin-7-yl)-4-trideuteromethyl-N-(1-methyl-2-oxabicyclo[2.1.1]hexan-4-yl)benzenesulfonamide trifluoroacetate salt]",100 to 500 nM,< 100 nM,100 to 500 nM,
"Cc1ccc(S(=O)(=O)NC23COC(CO)(C2)C3)cc1-c1cnc2c(N)nc(C(F)(F)F)nn12 [Example 427, 3-(4-Amino-2-(trifluoromethyl)imidazo[1,2-f][1,2,4]triazin-7-yl)-N-(1-(hydroxymethyl)-2-oxabicyclo[2.1.1]hexan-4-yl)-4-methylbenzenesulfonamide trifluoroacetate salt]",100 to 500 nM,< 100 nM,100 to 500 nM,
"Cc1ccc(S(=O)(=O)NC23COC(CO)(C2)C3)cc1-c1cnc2c(N)nc(C(F)(F)F)cn12 [Example 428, 3-(8-amino-6-(trifluoromethyl)imidazo[1,2-a]pyrazin-3-yl)-N-(1-(hydroxymethyl)-2-oxabicyclo[2.1.1]hexan-4-yl)-4-methylbenzenesulfonamide trifluoroacetate salt]",100 to 500 nM,< 100 nM,100 to 500 nM,
"Cc1ccc(S(=O)(=O)NC23COC(C#N)(C2)C3)cc1-c1cnc2c(N)nc(C(F)(F)F)cn12 [Example 429, 3-(8-Amino-6-(trifluoromethyl)imidazo[1,2-a]pyrazin-3-yl)-N-(1-cyano-2-oxabicyclo[2.1.1]hexan-4-yl)-4-methylbenzenesulfonamide trifluoroacetate salt]",100 to 500 nM,< 100 nM,100 to 500 nM,
"Cc1ccc(S(=O)(=O)NC23CCC(CC#N)(CC2)C3)cc1-c1cnc2c(N)ncnn12 [Example 430, 3-(4-Aminoimidazo[1,2-f][1,2,4]triazin-7-yl)-N-((1s,4s)-4-(cyanomethyl)bicyclo[2.2.1]heptan-1-yl)-4-methylbenzenesulfonamide trifluoroacetate salt]",100 to 500 nM,< 100 nM,100 to 500 nM,
"Cc1ccc(S(=O)(=O)NC23CCC(C(C)(C)O)(CC2)C3)cc1-c1cnc2c(N)ncnn12 [Example 431, 3-(4-Aminoimidazo[1,2-f][1,2,4]triazin-7-yl)-N-(4-(2-hydroxypropan-2-yl)bicyclo[2.2.1]heptan-1-yl)-4-methylbenzenesulfonamide trifluoroacetate salt]",100 to 500 nM,< 100 nM,100 to 500 nM,
